Assay [1] has as its system pentylenetetrazol induced clonic convulsions. The experiment in a line: Pentazol clonic conv. mice (i.p.) (Procedure 400). It counts as in vivo, mice (NMRI). The settings on record: Mus musculus, ip, 0.5 h, i.p. 30 min before pentylenetetrazol 150 mg/kg s.c., clonic seizures, read-out: ED50 activity against pentazol induced convulsions, clonic. The procedure: II. Pentazol clonic conv. mice (i.p.) (Procedure 400)
Pentylenetetrazol induces clonic and tonic convulsions in mice at doses of 60-120 mg/kg s.c. The mechanism is unknown but seems to be due to some effects through the GABA receptor/benzodiazepine receptor/chloride ionophore complex. Antagonism of convulsions induced by maximal doses of pentylenetetrazol is considered predictive for drugs effective against petit mal epilepsia and anxiety.
150 mg/kg pentylenetetrazol dissolved in 0.9% NaCl is given by the subcutaneous route in volume of 15 ml/kg to male or female NMRI mice weighing 20-25 g 30 min after an intraperitoneal injection of a test compound.
The ED50 value is calculated as the dose in μg/kg at which seizures are inhibited in 50% of the animals using a computer program based on the method of Litchfield and Wilcoxon (1949).

The test system of assay [2] is benzodiazepine receptors. The assay is described as follows: In vivo inhibition of 3H-flunitrazepam binding to mouse forebrain membranes, test substances i.p. (Procedure 130). The conditions noted are these: 3H-flunitrazepam i.v., dose inhibiting 50% of specific forebrain binding. The procedure:
I. In vivo inhibition of ^3 H-flunitrazepam binding to mouse forebrain membranes by test substances administered intraperitoneally. (Procedure 130)
Twenty minutes after a dose of ^3 H-flunitrazepam (^3 H-FNM) (200 μCi/kg, i.v.) the amount of specific ^3 H-FNM binding to brain benzodiazepine receptors has reached its maximal value.
Suspensions of test substances (2 mg/ml) are prepared in 5% Duphasol-X* by sonification for 10 min using a Branson B15 microtip ultrasonifier (setting 7). Groups of three mice (female, NMR, 18-22 gram) are injected with the test substance at 100 mg/kg intraperitoneally. Fifteen minutes after test substance administration the mice are challenged with 4 μCi intravenously of ^3 H-FNM (70-90 Ci/mole) in 200 μl physiological saline. Twenty minutes after ^3 H-FNM administration mice are sacrificed by decapitation, the forebrains rapidly excised (within 30 sec) and homogenized in 12 ml of icecold 25 mM KH2 PO4, pH 7.1, using an Ultra-Turrax homogenizer fitted with an N 10 shaft. Two aliquots of 1 ml are immediately filtered through Whatman GF/C glassfibre filters and washed with 2×5 ml of the above mentioned buffer. The amounts of radioactivity on the filters are determined by conventional scintillation counting. One group of untreated mice serves as controls. One to three mice are injected with 25 mg/kg clonazepam i.p. 30 minutes before ^3 H-FNM to determine the amount of non-specific ^3 H-FNM binding, which should be between 8-15% of total binding.
When doses of 100 mg/kg inhibit more than 50% of specific ^3 H-flunitrazepam binding; test substances are administered in doses, which are factors of 3.16 times lower than 100 mg/kg.
The ED50 for a test substance is defined as that dose which inhibits 50% of specific ^3 H-FNM binding. Specific binding is the amount of binding in controls minus the amount binding in clonazepam-treated mice.
The ED50 value is determined from dose response curves. If only one dose of test substance is administered the ED50 value is calculated as follows, provided that the inhibition of specific binding is within the range of 25-75%: [formula] where Co is specific binding in controls and Cx is specific binding in mice treated with test substance.

For assay [3], the system named is pentylenetetrazol induced tonic convulsions. The assay is described as follows: Pentazol tonic conv. mice i.p. (Procedure 401). Type of assay: in vivo, mice (NMRI). The settings on record: Mus musculus, ip, 0.5 h, i.p. 30 min before pentylenetetrazol 150 mg/kg s.c., tonic seizures, read-out: ED50 activity against pentazol induced convulsions, tonic. The procedure: III. Pentazol tonic conv. mice i.p. (Procedure 401)
Pentylenetetrazol induces clonic and tonic convulsions in mice at doses of 60-120 mg/kg s.c. The mechanism is unknown but seem to be due to some effects through the GABA receptor/benzodiazepine receptor/chloride ionophore complex. Antagonism of convulsions induced by maximal doses of pentylenetetrazol is considered predictive for drugs effective against petit mal epilepsia and anxiety.
150 mg/kg pentylenetetrazol (Pentazol, Sigma) dissolved in 0.9% NaCl is given by the subcutaneous route in volumes of 15 ml/kg to male or female NMRI mice weighing 20-25 g 30 min after an intraperitoneal injection of a test compound.
The ED50 value is calculated as the dose in μg/kg where seizures are inhibited in 50% of the animals using a computer program based on the method of Litchfield and Wilcoxon (1949).

Broadly, the ED50 is the midpoint of the dose-response relation. On to `CN1Cc2c(-c3noc(C4CC4)n3)ncn2-c2cccc(C(F)(F)F)c2C1=O`, for which the ED50 amounted to 0.008 mg/kg in assay [1] and 0.003 mg/kg in assay [3]. Also, the “ED50 binding in vivo” value in assay [2] is 0.01 mg/kg.

In the case of `O=C1c2c(Cl)cccc2-n2cnc(-c3noc(C4CC4)n3)c2C2CCCN12` (stereo not drawn), the “ED50 binding in vivo” value in assay [2] was 0.96 mg/kg.

For `O=C1c2c(Cl)cccc2-n2cnc(-c3nc(C4CC4)no3)c2C2CCCN12` (stereo not drawn), the “ED50 binding in vivo” value in assay [2] came to 0.23 mg/kg. In assay [3], the ED50 was 0.08 mg/kg.

For the compound `CC(C)c1noc(-c2ncn3c2CN(C)C(=O)c2c(Cl)cccc2-3)n1`, the median effective dose (ED50) worked out at 0.6 mg/kg in assay [1] and 0.2 mg/kg in assay [3]. Moreover, the “ED50 binding in vivo” value in assay [2] is 0.2 mg/kg.

`CN1Cc2c(-c3noc(C4CC4)n3)ncn2-c2cccc(F)c2C1=O`: the ED50 in assay [1] turned out to be 0.02 mg/kg; in assay [3] it was 0.005 mg/kg. Also, in assay [2], the “ED50 binding in vivo” value came out at 0.09 mg/kg.

As for `CN1Cc2c(-c3nc(C4CC4)no3)ncn2-c2cccc(Cl)c2C1=O`, the figures for the ED50 in assay [1] and in assay [3] were 0.09 mg/kg and 0.03 mg/kg, respectively. In addition, the “ED50 binding in vivo” value in assay [2] amounted to 0.06 mg/kg.

The values are drawn from patent US4745112A, “Oxadiazolylimidazobenzodiazepine, compositions, and method III” (A/S Ferrosan, priority 1985, dated 1988).
